Measurements taken from ChEMBL document CHEMBL2413047, “Identification of GNE-293, a potent and selective PI3Kδ inhibitor: navigating in vitro genotoxicity while improving potency and selectivity” (Bioorg Med Chem Lett, 2013).
In brackets after ≈: the same amount, converted by molar mass. Each block holds one compound with its values, some of them ahead of it.

Experiments:
[1] = biological target: T1, Phosphatidylinositol 4,5-bisphosphate 3-kinase catalytic subunit delta isoform (Homo sapiens, UniProt O00329); assay: Inhibition of PI3Kdelta (unknown origin) assessed as formation of PIP3 by competitive fluorescence polarization assay; settings: read-out: Ki(app)
T1 sequence (O00329 whole entry): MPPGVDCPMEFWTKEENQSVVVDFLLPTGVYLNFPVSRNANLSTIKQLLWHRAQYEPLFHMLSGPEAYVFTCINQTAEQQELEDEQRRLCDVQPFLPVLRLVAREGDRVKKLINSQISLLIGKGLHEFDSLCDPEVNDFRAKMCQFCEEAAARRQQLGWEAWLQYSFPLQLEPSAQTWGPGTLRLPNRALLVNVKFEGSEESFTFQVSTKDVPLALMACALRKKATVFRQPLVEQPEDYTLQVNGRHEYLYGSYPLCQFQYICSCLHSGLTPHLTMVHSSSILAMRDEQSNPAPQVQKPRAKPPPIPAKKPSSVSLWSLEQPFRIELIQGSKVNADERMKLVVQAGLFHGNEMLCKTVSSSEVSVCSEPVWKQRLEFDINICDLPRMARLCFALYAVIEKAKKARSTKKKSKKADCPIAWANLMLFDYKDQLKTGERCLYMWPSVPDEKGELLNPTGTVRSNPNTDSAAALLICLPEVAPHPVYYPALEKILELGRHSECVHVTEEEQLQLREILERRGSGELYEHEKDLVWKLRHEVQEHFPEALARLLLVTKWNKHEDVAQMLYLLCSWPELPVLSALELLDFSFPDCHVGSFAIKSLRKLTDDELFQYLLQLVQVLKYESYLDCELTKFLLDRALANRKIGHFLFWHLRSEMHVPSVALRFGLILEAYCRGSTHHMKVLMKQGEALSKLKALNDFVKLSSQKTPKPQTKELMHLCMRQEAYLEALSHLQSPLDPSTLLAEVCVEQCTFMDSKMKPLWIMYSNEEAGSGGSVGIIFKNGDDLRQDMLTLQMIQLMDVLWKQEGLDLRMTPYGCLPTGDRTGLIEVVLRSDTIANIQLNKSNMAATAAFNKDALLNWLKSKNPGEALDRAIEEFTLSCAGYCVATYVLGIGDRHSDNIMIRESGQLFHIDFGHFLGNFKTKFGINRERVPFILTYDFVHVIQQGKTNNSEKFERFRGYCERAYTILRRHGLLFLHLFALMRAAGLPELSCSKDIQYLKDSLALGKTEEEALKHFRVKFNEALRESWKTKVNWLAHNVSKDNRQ

CHO-K1 = assay: Genotoxicity in CHOK1 cells by micronucleus assay; assay type: toxicity, cell-based, Cricetulus griseus; settings: chinese hamster
[2] = Genotoxicity in human lymphocytes assessed as chromosome aberration; assay type: toxicity, cell-based; settings: lymphocyte
[3] = biological target: T1, Phosphatidylinositol 4,5-bisphosphate 3-kinase catalytic subunit delta isoform; assay: Inhibition of PI3Kdelta in human whole blood assessed as expression of CD69 in B cell preincubated for 1 hr by flow cytometry; assay type: tissue-based
[4] = Kinetic solubility of the compound; assay type: physicochemical; settings: read-out: Kinetic_solubility
[5] = biological target: Maternal embryonic leucine zipper kinase (Homo sapiens) (UniProt Q14680); assay: Inhibition of MELK (unknown origin) at 10 uM
Chain of Maternal embryonic leucine zipper kinase (Homo sapiens) (Q14680 whole entry, looked up): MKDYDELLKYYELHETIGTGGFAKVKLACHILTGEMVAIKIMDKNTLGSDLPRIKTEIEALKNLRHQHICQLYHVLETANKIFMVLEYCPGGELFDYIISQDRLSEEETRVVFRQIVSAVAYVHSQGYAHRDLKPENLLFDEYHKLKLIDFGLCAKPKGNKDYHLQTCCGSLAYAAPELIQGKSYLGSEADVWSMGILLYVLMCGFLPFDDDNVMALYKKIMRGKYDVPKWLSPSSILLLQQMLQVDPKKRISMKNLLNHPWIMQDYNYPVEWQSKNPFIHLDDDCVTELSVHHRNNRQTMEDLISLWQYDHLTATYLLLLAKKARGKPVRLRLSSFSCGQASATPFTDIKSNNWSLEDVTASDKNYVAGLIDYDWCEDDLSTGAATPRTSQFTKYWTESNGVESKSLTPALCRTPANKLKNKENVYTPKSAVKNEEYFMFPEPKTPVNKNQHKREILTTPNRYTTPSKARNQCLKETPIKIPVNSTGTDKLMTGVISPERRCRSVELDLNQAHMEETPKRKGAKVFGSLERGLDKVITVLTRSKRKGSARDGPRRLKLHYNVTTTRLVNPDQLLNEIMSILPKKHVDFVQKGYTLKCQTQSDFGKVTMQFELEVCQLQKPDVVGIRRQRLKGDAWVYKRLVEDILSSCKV

[6] = system: Serine/threonine-protein kinase B-raf (Homo sapiens), P15056 [V600E]; assay: Inhibition of B-Raf V599E mutant (unknown origin) at 10 uM
Chain of Serine/threonine-protein kinase B-raf (Homo sapiens), P15056 [V600E] (P15056 whole entry V600E, the tested form may be a part): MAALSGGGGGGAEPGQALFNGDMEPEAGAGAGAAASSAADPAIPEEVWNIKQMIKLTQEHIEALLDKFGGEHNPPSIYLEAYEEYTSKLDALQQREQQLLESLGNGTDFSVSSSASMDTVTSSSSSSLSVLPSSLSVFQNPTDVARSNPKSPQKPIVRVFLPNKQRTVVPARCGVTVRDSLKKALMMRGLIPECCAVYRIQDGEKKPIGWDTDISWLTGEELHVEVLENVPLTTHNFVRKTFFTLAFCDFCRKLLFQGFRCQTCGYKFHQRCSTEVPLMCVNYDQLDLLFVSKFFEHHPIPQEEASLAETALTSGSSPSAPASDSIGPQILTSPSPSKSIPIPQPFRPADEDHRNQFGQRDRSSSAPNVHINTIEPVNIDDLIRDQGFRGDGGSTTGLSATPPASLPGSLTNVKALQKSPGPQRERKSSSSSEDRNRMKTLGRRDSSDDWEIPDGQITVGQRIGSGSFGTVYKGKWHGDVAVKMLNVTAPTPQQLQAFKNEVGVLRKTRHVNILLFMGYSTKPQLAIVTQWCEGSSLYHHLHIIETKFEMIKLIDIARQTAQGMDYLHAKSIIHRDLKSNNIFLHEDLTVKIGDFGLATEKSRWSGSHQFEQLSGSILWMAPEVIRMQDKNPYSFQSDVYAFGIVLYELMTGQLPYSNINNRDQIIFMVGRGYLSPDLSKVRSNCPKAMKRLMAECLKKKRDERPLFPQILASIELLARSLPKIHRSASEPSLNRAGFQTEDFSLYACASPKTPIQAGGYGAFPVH

[7] = biological target: Phosphatidylinositol 4-phosphate 3-kinase C2 domain-containing subunit beta (Homo sapiens) (UniProt O00750); assay: Inhibition of PI3KC2b (unknown origin) at 10 uM
Chain of Phosphatidylinositol 4-phosphate 3-kinase C2 domain-containing subunit beta (Homo sapiens) (O00750 whole entry, the tested form may be a part, canonical isoform): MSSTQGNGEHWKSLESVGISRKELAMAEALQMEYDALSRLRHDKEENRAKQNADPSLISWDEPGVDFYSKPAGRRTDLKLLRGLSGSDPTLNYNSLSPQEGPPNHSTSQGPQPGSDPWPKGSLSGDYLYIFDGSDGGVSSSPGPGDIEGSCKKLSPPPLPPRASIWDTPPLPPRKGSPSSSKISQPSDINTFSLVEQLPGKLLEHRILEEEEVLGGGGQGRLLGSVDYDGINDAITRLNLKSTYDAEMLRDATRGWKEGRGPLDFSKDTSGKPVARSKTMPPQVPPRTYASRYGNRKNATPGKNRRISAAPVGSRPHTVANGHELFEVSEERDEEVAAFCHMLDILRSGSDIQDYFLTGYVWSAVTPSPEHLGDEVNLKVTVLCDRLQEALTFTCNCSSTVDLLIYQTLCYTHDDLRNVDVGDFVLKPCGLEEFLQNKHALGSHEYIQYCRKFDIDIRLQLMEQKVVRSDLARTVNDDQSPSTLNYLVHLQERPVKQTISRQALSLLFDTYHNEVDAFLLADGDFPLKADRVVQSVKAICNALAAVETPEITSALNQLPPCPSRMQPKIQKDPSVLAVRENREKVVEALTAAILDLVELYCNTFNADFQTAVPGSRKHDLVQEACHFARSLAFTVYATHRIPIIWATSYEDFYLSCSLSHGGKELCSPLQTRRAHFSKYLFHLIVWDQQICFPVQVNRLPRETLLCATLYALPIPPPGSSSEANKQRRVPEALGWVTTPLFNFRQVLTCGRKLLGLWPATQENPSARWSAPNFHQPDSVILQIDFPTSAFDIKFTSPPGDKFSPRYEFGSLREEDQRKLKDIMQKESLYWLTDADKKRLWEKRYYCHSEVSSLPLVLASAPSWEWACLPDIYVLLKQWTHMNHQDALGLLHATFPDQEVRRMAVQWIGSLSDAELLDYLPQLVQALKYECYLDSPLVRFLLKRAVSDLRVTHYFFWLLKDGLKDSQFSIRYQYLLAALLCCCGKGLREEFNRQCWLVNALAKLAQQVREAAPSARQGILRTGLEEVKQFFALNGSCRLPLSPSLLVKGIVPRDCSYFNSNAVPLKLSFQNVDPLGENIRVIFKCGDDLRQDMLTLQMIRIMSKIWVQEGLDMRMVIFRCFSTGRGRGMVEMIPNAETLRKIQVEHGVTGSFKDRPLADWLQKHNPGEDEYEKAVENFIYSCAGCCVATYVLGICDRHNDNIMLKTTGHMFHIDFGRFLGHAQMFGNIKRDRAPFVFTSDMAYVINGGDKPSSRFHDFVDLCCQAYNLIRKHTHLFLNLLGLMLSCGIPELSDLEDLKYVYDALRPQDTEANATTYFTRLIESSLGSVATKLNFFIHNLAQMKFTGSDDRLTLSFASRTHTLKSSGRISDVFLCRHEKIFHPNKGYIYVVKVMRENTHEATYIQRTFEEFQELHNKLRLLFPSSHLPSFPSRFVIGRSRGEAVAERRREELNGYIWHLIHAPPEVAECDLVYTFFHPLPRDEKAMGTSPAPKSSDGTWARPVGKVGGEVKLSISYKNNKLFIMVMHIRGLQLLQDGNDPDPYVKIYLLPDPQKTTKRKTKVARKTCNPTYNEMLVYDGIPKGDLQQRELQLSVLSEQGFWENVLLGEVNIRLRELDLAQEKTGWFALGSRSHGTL

[8] = biological target: Phosphatidylinositol 4,5-bisphosphate 3-kinase catalytic subunit alpha isoform (Homo sapiens, UniProt P42336); assay: Inhibition of PI3Kalpha (unknown origin) assessed as formation of PIP3 by competitive fluorescence polarization assay; settings: read-out: Ki(app)
Chain of Phosphatidylinositol 4,5-bisphosphate 3-kinase catalytic subunit alpha isoform (P42336 whole entry, canonical isoform): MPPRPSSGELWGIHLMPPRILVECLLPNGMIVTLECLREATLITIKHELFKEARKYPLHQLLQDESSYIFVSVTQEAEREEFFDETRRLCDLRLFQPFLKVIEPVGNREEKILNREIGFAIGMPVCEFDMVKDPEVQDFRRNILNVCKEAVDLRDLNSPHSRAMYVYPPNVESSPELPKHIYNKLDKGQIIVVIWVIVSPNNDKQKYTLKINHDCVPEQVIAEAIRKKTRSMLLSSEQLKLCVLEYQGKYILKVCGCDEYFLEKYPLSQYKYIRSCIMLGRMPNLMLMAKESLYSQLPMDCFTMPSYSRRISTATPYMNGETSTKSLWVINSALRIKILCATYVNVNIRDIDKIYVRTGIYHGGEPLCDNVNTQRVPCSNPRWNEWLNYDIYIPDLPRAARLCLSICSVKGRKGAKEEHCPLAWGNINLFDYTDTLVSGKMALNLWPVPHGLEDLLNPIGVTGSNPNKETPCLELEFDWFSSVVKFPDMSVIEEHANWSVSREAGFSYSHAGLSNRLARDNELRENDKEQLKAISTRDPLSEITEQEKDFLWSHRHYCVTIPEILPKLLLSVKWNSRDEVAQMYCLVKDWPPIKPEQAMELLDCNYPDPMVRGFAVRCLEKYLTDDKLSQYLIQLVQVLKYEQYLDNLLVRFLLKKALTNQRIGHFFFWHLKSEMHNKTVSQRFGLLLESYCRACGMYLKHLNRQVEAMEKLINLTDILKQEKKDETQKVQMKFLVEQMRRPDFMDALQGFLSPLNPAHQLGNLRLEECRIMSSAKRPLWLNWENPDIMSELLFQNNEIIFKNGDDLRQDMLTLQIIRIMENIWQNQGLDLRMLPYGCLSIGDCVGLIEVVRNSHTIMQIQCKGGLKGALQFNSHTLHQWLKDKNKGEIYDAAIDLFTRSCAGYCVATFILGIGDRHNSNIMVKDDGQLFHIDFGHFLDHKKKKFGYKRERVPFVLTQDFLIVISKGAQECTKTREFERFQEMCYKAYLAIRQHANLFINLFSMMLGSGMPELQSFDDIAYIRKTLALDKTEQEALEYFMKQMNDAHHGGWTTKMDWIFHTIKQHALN

[9] = Clearance in rat at 1 mg/kg, iv; assay type: ADME, organism-based; design: dose 1 mg/kg, route intravenous; settings: in vivo
[10] = biological target: Serine/threonine-protein kinase B-raf (Homo sapiens) (UniProt P15056); assay: Inhibition of B-Raf (unknown origin) at 1 uM
Chain of Serine/threonine-protein kinase B-raf (Homo sapiens) (P15056 whole entry): as the sequence (P15056 whole entry V600E, the tested form may be a part) above, with E600V counted along it

[11] = Half life in rat at 1 mg/kg, iv; assay type: ADME, organism-based; design: dose 1 mg/kg, route intravenous; settings: in vivo
[12] = Genotoxicity in human lymphocytes assessed as chromosome aberration at […] relative to control; assay type: toxicity, cell-based; settings: lymphocyte
[13] = Half life in dog at 1 mg/kg, iv; assay type: ADME, organism-based, Canis lupus familiaris; design: dose 1 mg/kg, route intravenous; settings: in vivo
[14] = Plasma protein binding in dog; assay type: ADME, cell-free, Canis lupus familiaris; settings: read-out: PPB (converted)
[15] = AUC in rat at 5 mg/kg, po; assay type: ADME, organism-based; design: dose 5 mg/kg, route oral; settings: plasma
[16] = Plasma protein binding in rat; assay type: ADME, cell-free; settings: read-out: PPB (converted)
[17] = AUC in dog at 10 mg/kg, po; assay type: ADME, organism-based, Canis lupus familiaris; design: dose 10 mg/kg, route oral; settings: plasma
[18] = Oral bioavailability in dog at 10 mg/kg; assay type: ADME, organism-based, Canis lupus familiaris; settings: in vivo
[19] = Cmax in rat at 5 mg/kg, po; assay type: ADME, organism-based; design: dose 5 mg/kg, route oral; settings: in vivo
[20] = Clearance in dog at 1 mg/kg, iv; assay type: ADME, organism-based, Canis lupus familiaris; design: dose 1 mg/kg, route intravenous; settings: in vivo
[21] = Oral bioavailability in rat at 5 mg/kg; assay type: ADME, organism-based; settings: in vivo
[22] = Genotoxicity in human lymphocytes assessed as mitotic index at […] (reference value: 11.1); assay type: toxicity, cell-based; settings: lymphocyte
[23] = Oral bioavailability in dog at 2 mg/kg; assay type: ADME, organism-based, Canis lupus familiaris; settings: in vivo
[24] = Volume of distribution at steady state in dog at 1 mg/kg, iv; assay type: ADME, organism-based, Canis lupus familiaris; design: dose 1 mg/kg, route intravenous; settings: in vivo, read-out: Vdss
[25] = biological target: Phosphatidylinositol 4-kinase beta (Homo sapiens) (UniProt Q9UBF8); assay: Inhibition of PI4Kb (unknown origin) at 1 uM
Chain of Phosphatidylinositol 4-kinase beta (Homo sapiens) (Q9UBF8 2-816 limits assumed): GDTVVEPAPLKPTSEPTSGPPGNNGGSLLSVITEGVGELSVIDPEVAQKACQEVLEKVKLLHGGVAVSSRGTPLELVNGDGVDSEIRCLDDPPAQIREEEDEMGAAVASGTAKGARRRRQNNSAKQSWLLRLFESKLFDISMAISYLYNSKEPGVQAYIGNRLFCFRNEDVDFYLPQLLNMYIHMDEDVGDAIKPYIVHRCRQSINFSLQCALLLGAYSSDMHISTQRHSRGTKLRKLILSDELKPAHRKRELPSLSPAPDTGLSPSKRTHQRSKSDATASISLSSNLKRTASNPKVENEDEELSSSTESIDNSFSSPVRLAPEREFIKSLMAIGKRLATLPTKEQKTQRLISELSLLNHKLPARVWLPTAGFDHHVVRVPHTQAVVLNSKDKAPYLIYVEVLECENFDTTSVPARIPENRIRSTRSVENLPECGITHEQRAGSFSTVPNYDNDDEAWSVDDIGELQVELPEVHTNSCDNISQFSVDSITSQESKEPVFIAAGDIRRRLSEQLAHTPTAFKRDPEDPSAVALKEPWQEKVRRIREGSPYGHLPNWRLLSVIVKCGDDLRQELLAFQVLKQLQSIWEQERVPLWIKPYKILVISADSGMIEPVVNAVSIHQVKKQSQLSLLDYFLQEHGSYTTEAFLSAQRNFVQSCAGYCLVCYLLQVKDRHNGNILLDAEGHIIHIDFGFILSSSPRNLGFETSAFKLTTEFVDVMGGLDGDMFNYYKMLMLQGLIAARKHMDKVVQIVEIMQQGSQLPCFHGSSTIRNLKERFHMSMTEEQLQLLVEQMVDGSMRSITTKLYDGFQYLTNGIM

[26] = AUC in dog at 2 mg/kg, po; assay type: ADME, organism-based, Canis lupus familiaris; design: dose 2 mg/kg, route oral; settings: plasma
[27] = Cmax in dog at 2 mg/kg, po; assay type: ADME, organism-based, Canis lupus familiaris; design: dose 2 mg/kg, route oral; settings: in vivo
[28] = Cmax in dog at 10 mg/kg, po; assay type: ADME, organism-based, Canis lupus familiaris; design: dose 10 mg/kg, route oral; settings: in vivo
[29] = Volume of distribution at steady state in rat at 1 mg/kg, iv; assay type: ADME, organism-based; design: dose 1 mg/kg, route intravenous; settings: in vivo, read-out: Vdss

SMILES: CC(C)(O)C1CCN(Cc2cc3nc(-c4cccc5[nH]ncc45)nc(N4CCOCC4)c3s2)CC1
Ki [1]: 1.1 nM
Activity (CHO-K1): Non-toxic
Activity [2]: Non-toxic

SMILES: Cn1c(CN2CCC(C(C)(C)O)CC2)nc2c(N3CCOCC3)nc(-n3c(C4CC4)nc4ccccc43)nc21
Activity (CHO-K1): Non-toxic
Activity [2]: Toxic

SMILES: Cc1nc2ccccc2n1-c1nc(N2CCOCC2)c2nc(CN3CCC(C(C)(C)O)CC3)n(C)c2n1
Activity (CHO-K1): Toxic
Activity [2]: Toxic

SMILES: CCc1nc2ccccc2n1-c1nc(N2CCOCC2)c2nc(NC3CN(C4CCS(=O)(=O)CC4)C3)n(C)c2n1
Ki [1]: 0.9 nM
IC50 [3]: 80.2 nM

SMILES: Cn1c(CN2CCC(C(C)(C)O)CC2)nc2c(N3CCOCC3)nc(-c3cccc4[nH]ncc34)nc21
Ki [1]: 2.3 nM

SMILES: CCc1nc2ccccc2n1-c1nc(N2CCOCC2)c2sc(CN3CCC(C(C)(C)O)CC3)cc2n1
Activity (CHO-K1): Non-toxic
Activity [2]: Non-toxic

SMILES: CCc1nc2ccccc2n1-c1nc(N2CCOCC2)c2nc(CN3CCC(C(C)(C)O)CC3)n(C)c2n1
Activity (CHO-K1): Toxic
Activity [2]: Toxic

SMILES: CNc1nc2ccccc2n1-c1nc(N2CCOCC2)c2nc(CN3CCC(C(C)(C)O)CC3)n(C)c2n1
Activity (CHO-K1): Toxic

SMILES: CC(C)c1nc2ccccc2n1-c1nc(N2CCOCC2)c2nc(OC3CN(C4CCS(=O)(=O)CC4)C3)n(C)c2n1
inhibition [10]: 61%
half-life [11]: 2.59 h
Activity [12]: 2%
half-life [13]: 11.6 h
fraction unbound [14]: 0.2
clearance [9]: 19.4 mL/min/kg
AUC [15]: 7.23 µM·h
fraction unbound [16]: 0.183
Ki [1]: 0.47 nM
AUC [17]: 128 µM·h
bioavailability [18]: 100%
Cmax [19]: 1180 nM
clearance [20]: 2.3 mL/min/kg
IC50 [3]: 4.38 nM
bioavailability [21]: 96.2%
Activity [22]: 6.8%
bioavailability [23]: 82.6%
Vd [24]: 2.2 L/kg
inhibition [25]: 71%
AUC [26]: 21.1 µM·h
Cmax [27]: 1740 nM
Cmax [28]: 8810 nM
Vd [29]: 3.6 L/kg

Second part, led by results:

Ki [1]: 0.36 nM
IC50 [3]: 9.96 nM
SMILES: CCc1nc2ccccc2n1-c1nc(N2CCOCC2)c2nc(CC3CN(C(=O)C(C)C)C3)n(C)c2n1

solubility kinetic [4]: 32 µM (≈ 17 µg/mL)
inhibition [5]: 63%
inhibition [6]: 53%
inhibition [7]: 72%
SMILES: CC(C)c1nc2ccccc2n1-c1nc(N2CCOCC2)c2nc(CN3CCC(C(C)(C)O)CC3)n(C)c2n1
Activity (CHO-K1): Non-toxic
Activity [2]: Toxic

Ki [8]: 157 nM
Ki [1]: 12.7 nM
SMILES: CCc1nc2ccccc2n1-c1nc(N2CCOCC2)c2sc(C(=O)N3CCN(C(C)(C)C(N)=O)CC3)c(C)c2n1

clearance [9]: 63 mL/min/kg
Ki [1]: 0.23 nM
IC50 [3]: 4.02 nM
SMILES: CCc1nc2ccccc2n1-c1nc(N2CCOCC2)c2nc(CC3CN(C4CCS(=O)(=O)CC4)C3)n(C)c2n1

Ki [1]: 0.59 nM
IC50 [3]: 1.79 nM
SMILES: CCc1nc2ccccc2n1-c1nc(N2CCOCC2)c2nc(N(C)C3CN(C4CCS(=O)(=O)CC4)C3)n(C)c2n1

Ki [1]: 3.1 nM
IC50 [3]: 52.8 nM
SMILES: CCc1nc2ccccc2n1-c1nc(N2CCOCC2)c2nc(C(=O)N3CCC(C(C)(C)O)CC3)n(C)c2n1

Ki [1]: 0.88 nM
SMILES: CCc1nc2ccccc2n1-c1nc(N2CCOCC2)c2nc(NC3CN(C(=O)C(C)C)C3)n(C)c2n1

Ki [8]: 236 nM
Ki [1]: 0.8 nM
SMILES: CCc1nc2ccccc2n1-c1nc(N2CCOCC2)c2nc(C(=O)N3CCN(C(C)(C)C(N)=O)CC3)n(C)c2n1
